Measured values published in patent publication US20150166505A1, “PYRIDINYL-SUBSTITUTED PYRAZOLYL CARBOXAMIDES” (GRÜNENTHAL GMBH, priority 2013, published 2015).
In brackets after ≈: the same amount, converted by molar mass. Structures can show the parent of a compound that is named as a salt. Where two headings read alike, the source gives them in different places.

Columns and labels:
[1] = Nephelometric Solubility Measurement; assay type: physicochemical; settings: aqueous buffer, kinetic from dmso stock; phosphate buffered saline pH 7.4, 37° C., incubation 2 minutes
Protocol: Nephelometric Solubility Measurement
BMG Labtech Nephelostar (S/N 504-0167), 37° C.; Gain: 100; Laser Beam Focus 1.5 mm; Laser intensity 80%; measurement time/well 0.1 s; positioning delay 0.1 s; data analysis: BMG Labtech MARS software
Measurements with BMG Labtech Nephelostar performed though addition of DMSO stock solutions of compound (2, 5, 10, 20, 30, 40, 50, 60, 80, 100 [μg/mL]) into phosphate buffered saline (pH 7.4, purchased from Invitrogen, catalogue number 10010-056); incubation time: 2 minutes [blank measurement contains DMSO (2.5 μL) and buffered saline (47.5 μL)]; Detection of insoluble particles in liquid samples was performed by measuring forward scattered light.

[2] = test system: Interleukin-2 (IL-2) production/release in Jurkat T cell line; test: Jurkat IL-2 Production Assay; assay type: cell-based; settings: Homo sapiens; Jurkat T cells, PHA stimulation 22 hours
How it was run: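 Jurkat E6-1 cells (5*10^5/well) preincubated 30 min with compound, then stimulated with 15 μg/ml PHA for 22 h at 37 °C. IC50 from 8-point 1:3.16 dilutions starting at 10 μM.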

[3] = target: T1, CRAC channel (endogenous SOC in HEK293 cells) (Homo sapiens, UniProt Q96D31); test: HEK Calcium Influx Assay (FLIPR); assay type: cell-based
T1 construct: endogenous in cells; host or cells: HEK293 (ECACC)
T1 sequence (Q96D31 whole entry): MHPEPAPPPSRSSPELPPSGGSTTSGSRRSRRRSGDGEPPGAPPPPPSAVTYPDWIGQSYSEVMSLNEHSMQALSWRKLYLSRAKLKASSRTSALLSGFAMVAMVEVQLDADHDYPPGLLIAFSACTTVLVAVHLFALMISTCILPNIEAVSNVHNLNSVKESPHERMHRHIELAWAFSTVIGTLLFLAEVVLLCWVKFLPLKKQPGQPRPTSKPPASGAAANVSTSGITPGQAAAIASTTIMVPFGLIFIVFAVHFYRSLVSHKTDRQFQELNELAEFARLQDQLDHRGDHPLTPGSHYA
How it was run: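 Endogenous SOC in HEK293 cells, Calcium-4 dye-loaded; stores depleted with 2 μM thapsigargin in Ca2+-free HBS (100 μM EGTA, pH 7.4) 10 min, then 3 mM CaCl2 added. Compound given after 15 min; signal averaged 9.5–10 min post-addition versus DMSO and non-TG controls. IC50 from 8-point 1:3.16 series starting 10 μM.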

[4] = numeric values of Table 2, read-out: inhib. [@ 10 μM] FLIPR
[5] = thapsigargin store depletion, read-out: % inhib. [@ 10 μM] FLIPR

SMILES | solubility at 2 min [1] [µM] | IC50 [2] [µM] | inhibition at 10 µM [3, 4] [%] | inhibition at 10 µM [3, 5] [%]
CCOc1cc(C)c(-c2ccc(NC(=O)c3c(F)cccc3F)cc2)cn1 [Comparative example #3, reference compound] | < 14 | – | – | –
COc1cc(OC)c(-c2ccc(NC(=O)c3c(F)cccc3F)cc2)cn1 [Comparative example #4, reference compound] | 38.8 (≈ 14.4 µg/mL) | – | – | –
COc1ncc(-c2nn(C)c(=O)o2)cc1-c1ccc(NC(=O)c2c(F)cccc2F)cc1 [Comparative example #5, reference compound] | < 11 | – | – | –
CCOc1cc(C)c(-c2cc(C(=O)Nc3c(F)cccc3F)nn2C)cn1 [Example 3, N-(2,6-Difluoro-phenyl)-5-(6-ethoxy-4-methyl-pyridin-3-yl)-1-methyl-1H-pyrazole-3-carboxylic acid amide] | 149 (≈ 55.6 µg/mL) | < 0.5 | 75 | > 70
COc1cc(OC)c(-c2cc(C(=O)Nc3c(F)cccc3F)nn2C)cn1 [Example 38, N-(2,6-Difluoro-phenyl)-5-(4,6-dimethoxy-pyridin-3-yl)-1-methyl-1H-pyrazole-3-carboxylic acid amide] | > 267 | < 0.5 | – | > 70
COc1cc(OCC2CCC2)ncc1-c1cc(C(=O)Nc2c(F)cccc2F)nn1C [Example 55, 5-[6-(Cyclobutyl-methoxy)-4-methoxy-pyridin-3-yl]-N-(2,6-difluoro-phenyl)-1-methyl-1H-pyrazole-3-carboxylic acid amide] | – | < 0.5 | – | > 70
COc1cc(Cl)c(-c2cc(C(=O)Nc3c(F)cccc3F)nn2C)cn1 [Example 56, 5-(4-Chloro-6-methoxy-pyridin-3-yl)-N-(2,6-difluoro-phenyl)-1-methyl-1H-pyrazole-3-carboxylic acid amide] | – | 0.5 to 1 | – | > 70
COc1cc(OC)c(-c2c(Cl)c(C(=O)Nc3c(F)cccc3F)nn2C)cn1 [Example 57, 4-Chloro-N-(2,6-difluoro-phenyl)-5-(4,6-dimethoxy-pyridin-3-yl)-1-methyl-1H-pyrazole-3-carboxylic acid amide] | – | 1 to 5 | – | > 70
Cc1cc(C(F)(F)F)ncc1-c1cc(C(=O)Nc2c(F)cccc2F)nn1C [Example 60, N-(2,6-Difluoro-phenyl)-1-methyl-5-[4-methyl-6-(trifluoromethyl)-pyridin-3-yl]-1H-pyrazole-3-carboxylic acid amide] | – | 0.5 to 1 | 100 | > 70
COc1cc(OC2CC2)ncc1-c1cc(C(=O)Nc2c(F)cccc2F)nn1C [Example 61, 5-(6-Cyclopropyloxy-4-methoxy-pyridin-3-yl)-N-(2,6-difluoro-phenyl)-1-methyl-1H-pyrazole-3-carboxylic acid amide] | – | < 0.5 | – | > 70
COc1cc(OC2COC2)ncc1-c1cc(C(=O)Nc2c(F)cccc2F)nn1C [Example 62, N-(2,6-Difluoro-phenyl)-5-[4-methoxy-6-(oxetan-3-yloxy)-pyridin-3-yl]-1-methyl-1H-pyrazole-3-carboxylic acid amide] | – | 1 to 5 | – | 50 to 70
Cn1nc(C(=O)Nc2c(F)cncc2F)cc1-c1cnc(C2CC2)cc1C(F)(F)F [Example 63, 5-[6-Cyclopropyl-4-(trifluoromethyl)-pyridin-3-yl]-N-(3,5-difluoro-pyridin-4-yl)-1-methyl-1H-pyrazole-3-carboxylic acid amide] | – | 1 to 5 | – | > 70
COc1cc(OC)c(-c2c(C)c(C(=O)Nc3c(F)cccc3F)nn2C)cn1 [Example 64, N-(2,6-Difluoro-phenyl)-5-(4,6-dimethoxy-pyridin-3-yl)-1,4-dimethyl-1H-pyrazole-3-carboxylic acid amide] | – | 1 to 5 | – | > 70
COc1cc(OC)c(-c2c(C)c(C(=O)Nc3c(F)cncc3F)nn2C)cn1 [Example 65, N-(3,5-Difluoro-pyridin-4-yl)-5-(4,6-dimethoxy-pyridin-3-yl)-1,4-dimethyl-1H-pyrazole-3-carboxylic acid amide] | – | 1 to 5 | – | > 70
COc1cc(OC)c(-c2c(C)c(C(=O)Nc3cnc(C)cc3C)nn2C)cn1 [Example 66, 5-(4,6-Dimethoxy-pyridin-3-yl)-N-(4,6-dimethyl-pyridin-3-yl)-1,4-dimethyl-1H-pyrazole-3-carboxylic acid amide] | – | 1 to 5 | – | 50 to 70
COc1cc(OC)c(-c2c(C)c(C(=O)Nc3cncc(F)c3C)nn2C)cn1 [Example 67, 5-(4,6-Dimethoxy-pyridin-3-yl)-N-(5-fluoro-4-methyl-pyridin-3-yl)-1,4-dimethyl-1H-pyrazole-3-carboxylic acid amide] | – | 1 to 5 | – | > 70
CCOc1cc(OC)c(-c2cc(C(=O)Nc3c(F)cccc3F)n[nH]2)cn1 [Example 68, N-(2,6-Difluoro-phenyl)-5-(6-ethoxy-4-methoxy-pyridin-3-yl)-1H-pyrazole-3-carboxylic acid amide hydrochloride] | – | 1 to 5 | – | > 70
COc1cc(OC)c(-c2cc(C(=O)Nc3c(F)cccc3F)n[nH]2)cn1 [Example 69, N-(2,6-Difluoro-phenyl)-5-(4,6-dimethoxy-pyridin-3-yl)-1H-pyrazole-3-carboxylic acid amide hydrochloride] | – | 1 to 5 | – | > 70
COc1ncc(-c2nn(C)c(=O)o2)cc1-c1cc(C(=O)Nc2c(F)cccc2F)nn1C [Example 74, N-(2,6-Difluoro-phenyl)-5-[2-methoxy-5-(4-methyl-5-oxo-4H-[1,3,4]oxadiazol-2-yl)-pyridin-3-yl]-1-methyl-1H-pyrazole-3-carboxylic acid amide] | 131 (≈ 57.8 µg/mL) | 1 to 5 | – | < 50
